Data on one compound can be found in patent US20260325465A1, “SHP-1 INHIBITORS FOR TREATING CANCER” (MDX MANAGEMENT LLC, priority 2022, published 2026).

Structures are written as SMILES. Entries after “also recorded” stand apart in the source; their conditions may differ.

The nature of data set [1]: Study-1: continuous vs intermittent iSHP-1 with TLR agonists, adverse toxicity. The format is in vivo, mice. The following applies: i.p. The method, then:
(§1) FIGS. 11A-11E depict the impact of continuous or intermittent iShp-1 treatment on the efficacy and adverse toxicity. FIG. 11A depicts the study design. Mice with KPC pancreatic cancer were either continuously treated with TPI-1 (1× per day) or in an intermittent fashion with gapping days between two treatments (intermittent). Three doses, 1, 3 and 10 mg/kg (i.p.), were tested and TLR agonists (CpG plus PolyI:C, each 10 μg, i.p., 1× every 3 day) was given to kickstart inflammatory response. […] Tumor imaging (FIG. 11B) and volume change records (FIG. 11C) indicate similar efficacies of iShp-1 with continuous or intermittent schemes.
(§2) Tumor model: Single engraftment of KPC pancreatic adenocarcinoma
(§3) Treatments & dosing strategies: i) iSHP-1—TPI-1, 1, 3, and 10 mg/kg; i.p. either 1× per day (continuous), or following an intermittent schedule depicted in FIG. 11. ii) TLR agonists (αTLR)—CpG, PolyI:C, each 10 μg; i.p. every 3 days

Data set [2] has as its system KPC pancreatic adenocarcinoma. In words: Study-1: continuous vs intermittent iSHP-1 with TLR agonists, efficacy. The class given is in vivo, mice. The following applies: 1, 3 and 10 mg/kg i.p., with CpG plus PolyI:C. The method, then:
as §1, §2, §3

The test system of another data set is SHP-1. In words: SHP-1 activity in macrophages under proinflammatory stimulation and cancer cell ligation. The format is cell-based. The conditions noted are these: IFNγ/LPS stimulation, cancer cell ligation. The method, then:
(§4) FIGS. 2A-2G depict that the inhibition of SHP-1 enhances macrophage proinflammatory response, antigen presentation and phagocytosis in a tumor milieu. FIG. 2A and FIG. 2B depict that SHP-1 activity in macrophages is triggered by proinflammatory stimulation and the extracellular cancer cell ligation (“touching”) of macrophages (green bar in FIG. 2A). […] The SHP-2 inhibitor SHP099 (1 μg/ml) was used in assays. FIG. 2C depicts the inhibition of SHP-1 by TPI-1 dose-dependently recovers IFNγ/LPS-induced activation of STAT1 (p-STAT1) and Erk1/2 (p-Erk1/2) de-activated by SHP-1 (red line). FIG. 2D and FIG. 2E depict that the inhibition of SHP-1 in macrophages by TPI-1 enhances production of proinflammatory cytokines (FIG. 2D) and expression of immunogenic antigen presentation machinery (FIG. 2E) by IFNγ/LPS in a tumor milieu. […] The SHP-1 and SHP-2 inhibitors TPI-1 and SHP099, respectively, was used at 1 μg/ml in assays.
FIGS. 3A-3E depict modulation of SHP-1 activity in proinflammatory macrophages in cancer. Macrophages co-cultured with cancer cells were stimulated with IFNγ/LPS or TLR agonists (αTLR) comprising CpG, polycytidylic acid (i.e., PolyI:C) and R848 (each 0.4 μg/ml) for 30 min (37 °C) in the presence or the absence of different SHP-1 or SHP-2 inhibitor or activator, followed by cell lysis and assays of PTP activity. FIG. 3A depicts SHP-1 activity regulation mechanisms. […] FIG. 3E depicts that PKCθ negatively regulates SHP-1 activity at a moderate level.
In addition to TPI-1, several other SHP-1 inhibitors such as PTP inhibitor-I, PTP inhibitor-III, and recently reported vitamin E (9, 10) and phomoxanthone A and B (P×A and P×B) (11) were tested. Given that PKCθ modulates SHP-1 activity through phosphorylating Ser591 (12, 13), PKCθ inhibitor and activator were also tested in various assays.

The subject of the next data set is KPC pancreatic tumor. The data set is described as follows: Cytokines secreted by KPC tumor pieces treated with TLR agonists with or without TPI-1. Also on record: species or system mice. The following applies: TPI-1 0.4 μM with TLR agonists 1 μg/ml, 18 h. The method, then: KPC pancreatic tumor removed from mice were cut into small pieces and treated with 5 different TLR agonists (R848, 3M-852A, Motolimod, Bropirimine or Vesatolimod; 1 μg/ml each) without or with SHP-1 inhibitor TPI-1 (0.4 μM). After 18 h, cytokines secreted into the culture medium were assayed.

For a further data set, the system named is macrophages. In words: Macrophage cytokine production and antigen presentation machinery in a tumor milieu. The format is cell-based. The conditions noted are these: IFNγ/LPS. The method, then: as §4
Macrophages with high SHP-1 activity in a tumor milieu diminish production of proinflammatory cytokines but produce high IL-10 (see FIG. 2D, blue bar) under stimulation of IFNγ/LPS. This reinforcement of immunosuppression was reversed by SHP-1 inhibition. Additionally, inhibition of SHP-1 also enabled proinflammatory-activated macrophages to overcome the “don't-eat-me” barrier and initiate potent phagocytosis towards cancer cells, irrespective of cancer cells expressing of CD47 (FIG. 2F and FIG. 2G).

The subject of data set [3] is MC38 colorectal carcinoma. In words: αTLR-induced inflammation in MC38 tumor-bearing mice with or without TPI-1. The format is in vivo, C57BL6 mice. An excerpt: FIGS. 17A-17C depict inhibition of SHP-1 (iShp1) abrogates tumor-imposed immune suppression under pro-inflammatory challenges. FIG. 17A depicts neutrophil infiltration in different organs measured at various time point following αTLR challenge. FIG. 17B depicts neutrophil infiltration in tumor tissues in mice treated with αTLR plus TPI-1. FIG. 17C depicts the phenotype of intratumoral macrophages.
MC38 colorectal carcinoma was established (via subcutaneous administration) in syngeneic C57BL6 mice. After tumor sizes reached more than 200 mm^3, the tumor-bearing mice were induced systemic inflammatory condition by TLR agonists (αTLR, CpG/PolyIC/R848, each 25 μg) administrated via subcutaneous administration at the location distal from MC38 tumor. A group of mice were concurrently administrated with TPI-1 (1 mg/kg) via subcutaneous administration to achieve systemic SHP-1 inhibition.

The subject of data set [4] is KPC pancreatic ductal adenocarcinoma. The data set is described as follows: Study-4: late-stage, large KPC pancreatic cancer. The format is in vivo, mice. The method, then: FIGS. 14A-14E depict that pulse-intermittent inhibition of SHP-1 (iSHP-1) combined with TLR agonists (αTLR) treating late-stage KPC pancreatic ductal adenocarcinoma. FIG. 14A depicts the treatment scheme. Mice with large KPC tumors were treated (i.p.) consecutively for three days with TPI-I plus TLR agonists (CpG, PolyIC and R848, each 50 μg). After the initial pulse treatment, an intermittent period of 9-day was given before the 2nd cycle of treatment of two days with TPI plus TLR agonists. FIG. 14B depicts the luminescent images of mice with KPC tumor during the course of treatment. FIG. 14C depicts tumor volume changes.
Murine models: Single large pancreatic ductal adenocarcinoma (KPC-luc) C57BL6 syngeneic
Treatments: SHP-1 inhibition (iSHP-1) combined with TLR agonists (αTLR)

Data set [5] deals with PTP/SHP-1 activity in KPC tumor. In words: PTP/SHP-1 activity in KPC tumor in vivo. The arrangement: species or system murine. The conditions noted are these: with αTLR, cytokines, STING activator, RT, AZA or αPD-L1.

With `O=C1C=CC(=O)C(c2cc(Cl)ccc2Cl)=C1` [TPI-1], the “adverse effects, continuous dosing” value in data set [1] (1× per day) was “incurred acute anemia, proteinuria, splenomegaly and lung inflammation”. Further, the “adverse effects, intermittent dosing” value in data set [1] (intermittent) is on record as “did not display or were minor”. In addition, the tumor response entry in data set [2] is “restrained KPC pancreatic tumor growth and induced tumor regression”. In the data set on SHP-1, the “SHP-1 activity in macrophages (effect in words)” value is recorded as “potently inhibited SHP-1 activity at low concentrations”. Also, the “cytokines secreted, with SHP-1 inhibitor” value in the data set with KPC pancreatic tumor is “induced high production of proinflammatory cytokine s while suppressing production of IL-10 and TGFβ”. Also, in the data set on macrophages, the “expression of immunogenic antigen presentation machinery” value is “elevated macrophage production of proinflammatory cytokines and expression of immunogenic antigen presentation machinery”; the “macrophage proinflammatory cytokine production” value is “elevated macrophage production of proinflammatory cytokines”; the “reinforcement of immunosuppression (IL-10)” value is given as “reversed”. In addition, the “TNFα and IL12 expression of intratumoral macrophages” value in data set [3] (TPI-1 1 mg/kg s.c. with αTLR) is “increased TNFα and IL12 expression”. The “neutrophil infiltration in tumor” value in data set [3] (TPI-1 1 mg/kg s.c. with αTLR (CpG/PolyIC/R848, each 25 μg), 1 mg/kg) is reported as “enabled neutrophil infiltration upon αTLR; also recorded: increased neutrophil infiltration in tumor tissues”. In data set [4] (TPI-1 combined with αTLR, i.p.), the anti-tumor immune cells result was “bolstered anti-tumor immune cells such as CD8+ T cells, NK cells and neutrophils”; the “eradication of late-stage tumors” value was “effectively eradiated late-stage, large KPC pancreatic cancers”. Moreover, in data set [4] (TPI-1 with TLR agonists, day 4), the intratumoral immunosuppressive populations entry was “reduction of intratumoral immunosuppressive populations including macrophages (MØ) and MDSC”. In addition, in data set [5], the “treatment-induced PTP/SHP-1 activity abated” value was “abated”.
